The record followed here is PMC5577610, “Nine New Triterpene Glycosides, Magnumosides A1–A4, B1, B2, C1, C2 and C4, from the Vietnamese Sea Cucumber Neothyonidium (=Massinium) magnum: Structures and Activities against Tumor Cells Independently and in Synergy with Radioactive Irradiation” (Marine Drugs, 2017).

Counter-ions that a name gives are not always drawn. Bounds are passed on as bounds.

One may read the IC50 as the concentration that inhibits the measured activity by half.

Common to all, as to format: cell-based
The test system of one series is mouse erythrocytes. The note with it: for Hemolytic action (in words): mouse erythrocytes. Here is the method: The erythrocytes were washed thrice with 0.9% NaCl, centrifuged (450 g) on a centrifuge […] (Heraeus, Hanau, Germany) for 5 min followed by re-suspending in phosphate-buffered saline (PBS), pH 7.2-7.4. […] ED50 was calculated using SigmaPlot 3.02 software (Jandel Scientific, San Rafael, CA, USA). […] The erythrocyte suspension in phosphate-buffered saline, pH 7.2-7.4 (PBS) with 20 μL of the solvent without a tested compound was used as negative control.

Series [1] can be described thus: Cytotoxic activity (MTT) against mouse spleenocytes. To be noted: CD-1, mouse. Here is the method:
(§1) The spleenocytes from CD-1 line mice were used. The spleen was isolated from mice and homogenized. The spleenocytes were washed thrice and resuspended with RPMI-1640 medium contained gentamicine 8 μg/mL (Biolot, Saint Petersburg, Russia). The museum tetraploid strain of murine ascites Ehrlich carcinoma cells from the All-Russian cancer center RAMS (Moscow, Russia) was used. The cells of the ascites Ehrlich carcinoma were separated from ascites, which were collected on day 7 after inoculation in mouse CD-1 line. The cells were washed of ascites thrice and then resuspended in liquid media DMEM with L-Glutamine (Biolot, Saint Petersburg, Russia).
(§2) The solutions of tested substances in different concentrations (20 µL) and cell suspension (200 µL) were added in wells of 96-well plate and incubated over night at 37 °C and 5% CO2. After incubation the cells were sedimented by centrifugation, 200 µL of medium from each well were collected and 100 µL of pure medium were added. Then 10 µL of MTT solution […] (Sigma, St. Louis, MO, USA) were added in each well. Plate was incubated 4 h, after that 100 µL SDS-HCl were added to each well and plate was incubated at 37 °C 4–18 h. Optical density was measured at 570 nm and 630–690 nm. The activity of the substances was calculated as the ratio of the dead cells to general cells amount (ED50). Typicoside A1 [28] and cucumarioside A2-2 [11] were used as positive controls.

Series [2] is described as follows: Cytotoxic activity (MTT) against the ascites form of mouse Ehrlich carcinoma cells. To be noted: mouse. Here is the method:
as §1, §2

Series [3] relates to human colorectal adenocarcinoma DLD-1 cells. Kind of series: Cytotoxicity against DLD-1 cells (MTS assay). To be noted: for IC50: Homo sapiens, DLD-1, read-out: IC50 (50% reduction in cell viability), DLD-1 cells, 24 h, 0–100 µM. Here is the method: (§3) Human colorectal adenocarcinoma cells DLD-1 were cultured in RPMI-1640 medium. Culture media was supplemented with 10% fetal bovine serum (FBS) and penicillin—streptomycin solution. Cells were maintained in a sterile environment and kept in an incubator at 5% CO2 and 37 °C to promote growth. DLD-1 cells were sub-cultured every 3–4 days by their rinsing with phosphate buffered saline (PBS), adding trypsin to detach the cells from the tissue culture flask, and transferring 10–20% of the harvested cells to a new flask containing fresh growth media.
DLD-1 cells (1.0 × 10^4/well) were seeded in 96-well plates for 24 h at 37 °C in 5% CO2 incubator. The cells were treated with the compounds 1–9 at concentrations range from 0 to 100 µM for additional 24 h. Subsequently, cells were incubated with 15 µL MTS reagent for 3 h, and the absorbance of each well was measured at 490/630 nm using microplate reader “Power Wave XS” (Bio Tek, Winooski, VT, USA). All the experiments were repeated three times, and the mean absorbance values were calculated. The results are expressed as the percentage of inhibition that produced a reduction in absorbance by compound’s treatment compared to the non-treated cells (control).
On the technique in general: Tetrazolium assays rely on reduction of a dye to a coloured formazan, in cell work by metabolically active cells.

For series [4] the test system is unchanged. Kind of series: Soft agar assay, colony formation of DLD-1 cells. The note with it: 14 days; for Reduction of colonies size: 10 µM; for inhibition at 10 µM: Homo sapiens, DLD-1, 336 h, read-out: Inhibition of spontaneous colony formation (number of colonies). Here is the method: as §3
DLD-1 cells (8.0 × 10^3) were seeded in 6-well plate and treated with the 3, 7–9 (10 µM) in 1 mL of 0.3% Basal Medium Eagle (BME) agar containing 10% FBS, 2 mM L-glutamine, and 25 µg/mL gentamicin. The cultures were maintained at 37 °C in a 5% CO2 incubator for 14 days, and the cell’s colonies were scored using a microscope “Motic AE 20” (Scientific Instrument Company, Campbell, CA, USA) and the Motic Image Plus computer program (Scientific Instrument Company, Campbell, CA, USA).

The test system is the same in series [5]. Description: Radioactive irradiation plus compounds, DLD-1 cell proliferation (MTS). To be noted: compounds 2 µM, radiation 4 Gy, 96 h, MTS assay, read-out: Increase of the inhibitory effect from radiation on proliferation. Here is the method:
Figure 7 The effect of radioactive irradiation and a combination of radioactive irradiation and the compounds 3, 7–9 on DLD-1 cancer cell proliferation. DLD-1 cells (8.0 × 10^3) were treated with radiation 4 Gy and the compounds 3, 7–9 (2 µM) for 96 h. Cell viability was estimated using the MTS assay. Data are represented as the mean ± SD as determined from triplicate experiments. A Student’s t-test was used to evaluate the data with the following significance levels: * p < 0.05, ** p < 0.01.
DLD-1 cells (8 × 10^3) cells were seeded in 96-well plates in […] of RPMI-1640/10%FBS medium at 37 °C in a 5% CO2 incubator for 24 h. Then the cells were treated with 2 µM of 3, 7–9 for additional 24, 48, 72 or 96 h at 37 °C in a 5% CO2 atmosphere. The reaction was terminated by adding MTS reagent to each well as described in the Section 3.5.5.
Irradiation was delivered at room temperature using single doses of X-ray system XPERT 80 (KUB Technologies, Inc, Milford, CT, USA). The doses were from 4 to 8 Gy for colony formation assay. The absorber dose was measured using X-ray radiation clinical dosimeter DRK-1 (Akselbant, Moscow, Russia).
DLD-1 cells (5.0 × 10^5) were plated at 60 mm dishes and incubated for 24 h. After the incubation, the cells were cultured in the presence or absence of 2 μM 3, 7–9 for additional 24 h before irradiation at the dose of 4 Gy. Immediately after irradiation, cells were returned to the incubator for recovery. Three hour later, the cells were harvested and used for soft agar assay or proliferation assay to establish the synergism of radioactive irradiation and investigated compounds effects on colony formation or proliferation of tested cells.

`C=C(C)C(O)CCC(C)(O)C1C2CC3(C)C4=CCC5C(C)(C)C(OC6OCC(OS(=O)(=O)O)C(O)C6OC6OC(C)C(O)C(O)C6O)CCC5(C)C4CCC13C(=O)O2` [Compound 2, 3β-O-[β-D-quinovopyranosyl-(1→2)-4-O-sodium sulfate-β-D-xylopyranosyl]-9βH,20(S),24(S)-dihydroxylanosta-7,25-diene-18(16)-lactone]: in the series on mouse erythrocytes, the “Hemolytic action (in words)” value is given as “moderate hemolytic activity”. Further, the IC50 in series [1] is 94.2 ± 1.18 µM; in series [2], over 100 µM; in series [3] it was over 100 µM. In series [3] (0–100 µM, 24 h), the “Cytotoxic effect against DLD-1 cells (in words)” value is given as “did not possessed cytotoxic effect”.
For the compound `C=C(C)C(O)CCC(C)(O)C1C2CC3(C)C4=CCC5C(C)(C)C(OC6OCC(OS(=O)(=O)O)C(O)C6OC6OC(C)C(OC7OCC(OC8OC(COS(=O)(=O)O)C(O)C(OC)C8O)C(O)C7O)C(O)C6O)CCC5(C)C4CCC13C(=O)O2` [Compound 8, 3β-O-[6-O-sodium sulfate-3-O-methyl-β-D-glucopyranosyl-(1→3)-β-D-xylopyranosyl-(1→4)-β-D-quinovopyranosyl-(1→2)-4-O-sodium sulfate-β-D-xylopyranosyl]-9βH,20(S),24(S)-dihydroxylanosta-7,25-diene-18(16)-lactone], the “Hemolytic action (in words)” value in the series on mouse erythrocytes is reported as “significant effects”. Further, the IC50 in series [1] was found to be 17.3 ± 0.43 µM; in series [2], 37.5 µM; in series [3] it was 37.1 µM. For the same compound, the “Reduction of colonies size” value in series [4] is on record as “less than 20%”. Further, the inhibition at 10 µM in series [4] is under 20%. For the same compound, the inhibition at 2 µM in series [5] is over 30%.
With `COC1C(O)C(COS(=O)(=O)O)OC(OC2COC(OC3C(C)OC(OC4C(OC5CCC6(C)C7CCC89C(=O)OC(CC8(C)C7=CCC6C5(C)C)C9C(C)(O)CCC=C(C)C)OCC(OS(=O)(=O)O)C4O)C(O)C3O)C(O)C2O)C1O` [Compound 9, 3β-O-[6-O-sodium sulfate-3-O-methyl-β-D-glucopyranosyl-(1→3)-β-D-xylopyranosyl-(1→4)-β-D-quinovopyranosyl-(1→2)-4-O-sodium sulfate-β-D-xylopyranosyl]-9βH,20(S)-hydroxylanosta-7,24-diene-18(16)-lactone], the concentration for half-maximal inhibition (IC50) is 12.2 ± 0.33 µM in series [1], 35.06 ± 0.18 µM in series [2] and 33.9 µM in series [3]. Moreover, the “Reduction of colonies size” value in series [4] is “less than 20%”. Also, the inhibition at 10 µM in series [4] is under 20%. Moreover, in series [5], the inhibition at 2 µM was 45%.
On to `COC1C(O)C(COS(=O)(=O)O)OC(OC2COC(OC3C(C)OC(OC4C(OC5CCC6(C)C7CCC89C(=O)OC(CC8(C)C7=CCC6C5(C)C)C9C(C)(O)CC=CC(C)(C)O)OCC(OS(=O)(=O)O)C4O)C(O)C3O)C(O)C2O)C1O` [Compound 7, 3β-O-[6-O-sodium sulfate-3-O-methyl-β-D-glucopyranosyl-(1→3)-β-D-xylopyranosyl-(1→4)-β-D-quinovopyranosyl-(1→2)-4-O-sodium sulfate-β-D-xylopyranosyl]-9βH,20(S),25-dihydroxylanosta-7,23E-diene-18(16)-lactone], for which the “Hemolytic action (in words)” value in the series with mouse erythrocytes is “significant effects”. In addition, the figures for the IC50 in series [1], in series [2] and in series [3] were 8.97 ± 0.04 µM, 18.7 µM and 32.9 µM, respectively. Also, the “Reduction of colonies size” value in series [4] is listed as 43%. Besides, the inhibition at 10 µM in series [4] was found to be 26%.
As to `C=C(C)CCCC(C)(O)C1C2CC3(C)C4=CCC5C(C)(C)C(OC6OCC(OS(=O)(=O)O)C(O)C6OC6OC(C)C(O)C(O)C6O)CCC5(C)C4CCC13C(=O)O2` [Compound 3, 3β-O-[β-D-quinovopyranosyl-(1→2)-4-O-sodium sulfate-β-D-xylopyranosyl]-9βH,20(S)-hydroxylanosta-7,25-diene-18(16)-lactone], the IC50 in series [1] was 19.2 ± 0.03 µM; in series [2], 18.95 ± 0.03 µM; in series [3], 30.3 µM. In addition, the “Reduction of colonies size” value in series [4] was determined as 49%. Moreover, the inhibition at 10 µM in series [4] amounted to 22%. Also, in series [5], the inhibition at 2 µM was over 30%.
`CC(C)=CCCC(C)(O)C1C2CC3(C)C4=CCC5C(C)(C)C(OC6OCC(OS(=O)(=O)O)C(O)C6OC6OC(C)C(O)C(O)C6O)CCC5(C)C4CCC13C(=O)O2` [Compound 4, 3β-O-[β-D-quinovopyranosyl-(1→2)-4-O-sodium sulfate-β-D-xylopyranosyl]-9βH,20(S)-hydroxylanosta-7,24-diene-18(16)-lactone]: the IC50 was 37.6 µM in series [1], 28.4 ± 0.42 µM in series [2] and over 100 µM in series [3].
For `C=C(C)C(O)CCC(C)(O)C1C2CC3(C)C4=CCC5C(C)(C)C(OC6OCC(OS(=O)(=O)O)C(O)C6OC6OC(C)C(OC7OCC(OC8OC(CO)C(O)C(OC)C8O)C(O)C7O)C(O)C6O)CCC5(C)C4CCC13C(=O)O2` [Compound 6, 3β-O-[3-O-methyl-β-D-glucopyranosyl-(1→3)-β-D-xylopyranosyl-(1→4)-β-D-quinovopyranosyl-(1→2)-4-O-sodium sulfate-β-D-xylopyranosyl]-9βH,20(S),24(S)-dihydroxylanosta-7,25-diene-18(16)-lactone], the “Hemolytic action (in words)” value in the series on mouse erythrocytes is reported as “moderate hemolytic activity”. The half-maximal inhibitory concentration (IC50) in series [1], in series [2] and in series [3] was over 100 µM each time.
In turn, Triton X-100 [reference compound] returned a Hemolysis of cells in the series on mouse erythrocytes (concentration 1%, positive control) of 100%.
For the compound `COC1C(O)C(CO)OC(OC2COC(OC3C(C)OC(OC4C(OC5CCC6(C)C7CCC89C(=O)OC(CC8(C)C7=CCC6C5(C)C)C9C(C)(O)CC=CC(C)(C)O)OCC(OS(=O)(=O)O)C4O)C(O)C3O)C(O)C2O)C1O` [Compound 5, 3β-O-[3-O-methyl-β-D-glucopyranosyl-(1→3)-β-D-xylopyranosyl-(1→4)-β-D-quinovopyranosyl-(1→2)-4-O-sodium sulfate-β-D-xylopyranosyl]-9βH,20(S),25-dihydroxylanosta-7,23E-diene-18(16)-lactone], the “Hemolytic action (in words)” value in the series with mouse erythrocytes is “moderate hemolytic activity”. In addition, the IC50 in series [1], in series [2] and in series [3] was over 100 µM each time.
